Values quoted from earlier work, collected in article PMC4141160, “Peptide Inhibitor of Complement C1, a Novel Suppressor of Classical Pathway Activation: Mechanistic Studies and Clinical Potential” (Frontiers in Immunology, 2014).

How the values were obtained:
[1] = test system: classical pathway
[2] = target: purified C1q; set-up: method as in PMID 22906481; conditions: surface plasmon resonance, read-out: mean equilibrium dissociation constant (KD)
[3] = test system: CLR of C1q; conditions: ELISA
[4] = test system: C1q; set-up: method as in PMID 20728940
[5] = test system: C1
[6] = test system: alternative pathway
[7] = test system: transfused human RBCs; set-up: method as in PMID 12576307; conditions: mouse
[8] = test system: C4a; conditions: single i.v. injection at 30 mg/kg; ELISA

## IALILEPICCQERAA [PA]
[1]
  Classical pathway inhibition values using 0.77 mM peptide: 85%
[2]
  Kd: 33.3 nM
[3]
  binding to the CLR of C1q: specifically bind to the CLR of C1q

## PAICQRATATLGTVGSNTSGTTEIEACILL [CPP1, 30-residue PIC1 derivative from the HNP-1 homology region of astrovirus CP]
[1]
  Classical pathway inhibition values using 0.77 mM peptide: 50%
[4]
  inhibition of the binding of CP to C1q: inhibited the binding of CP to C1q
[5]
  inhibition of C1 activation, as assayed by C1s cleavage: inhibited C1 activation

## PAICQRAEIEACILL [Δ8–22, CPP1 with central region removed, functional peptide of 15 residues]
[1]
  Classical pathway inhibition values using 0.77 mM peptide: 70%
[6]
  effect on the alternative pathway: minimal effect

## sCR1: soluble complement receptor 1
[7]
  hemolysis and C3 and C4 deposition on transfused human RBCs: temporarily inhibit hemolysis as well as C3 and C4 deposition

B1: TNT009: humanized monoclonal analog of TNT003 (antibody, chains of the INN, looked up, V domains shown)
VH: EVQLVESGGGLVKPGGSLRLSCAASGFTFSNYAMSWVRQAPGKGLEWVATISSGGSHTYYLDSVKGRFTISRDNSKNTLYLQMNSLRAEDTALYYCARLFTGYAMDYWGQGTLVTVSS
VL: QIVLTQSPATLSLSPGERATMSCTASSSVSSSYLHWYQQKPGKAPKLWIYSTSNLASGVPSRFSGSGSGTDYTLTISSLQPEDFATYYCHQYYRLPPITFGQGTKLEIK
[8]
  in vivo generation of C4a: inhibited the in vivo generation of C4a
